For assay [1], the target named is T1, hTRPC3 (Homo sapiens, UniProt Q13507).
T1 construct: expressed in transfected cells; host or cells: HEK-293
T1 sequence (Q13507 1-921): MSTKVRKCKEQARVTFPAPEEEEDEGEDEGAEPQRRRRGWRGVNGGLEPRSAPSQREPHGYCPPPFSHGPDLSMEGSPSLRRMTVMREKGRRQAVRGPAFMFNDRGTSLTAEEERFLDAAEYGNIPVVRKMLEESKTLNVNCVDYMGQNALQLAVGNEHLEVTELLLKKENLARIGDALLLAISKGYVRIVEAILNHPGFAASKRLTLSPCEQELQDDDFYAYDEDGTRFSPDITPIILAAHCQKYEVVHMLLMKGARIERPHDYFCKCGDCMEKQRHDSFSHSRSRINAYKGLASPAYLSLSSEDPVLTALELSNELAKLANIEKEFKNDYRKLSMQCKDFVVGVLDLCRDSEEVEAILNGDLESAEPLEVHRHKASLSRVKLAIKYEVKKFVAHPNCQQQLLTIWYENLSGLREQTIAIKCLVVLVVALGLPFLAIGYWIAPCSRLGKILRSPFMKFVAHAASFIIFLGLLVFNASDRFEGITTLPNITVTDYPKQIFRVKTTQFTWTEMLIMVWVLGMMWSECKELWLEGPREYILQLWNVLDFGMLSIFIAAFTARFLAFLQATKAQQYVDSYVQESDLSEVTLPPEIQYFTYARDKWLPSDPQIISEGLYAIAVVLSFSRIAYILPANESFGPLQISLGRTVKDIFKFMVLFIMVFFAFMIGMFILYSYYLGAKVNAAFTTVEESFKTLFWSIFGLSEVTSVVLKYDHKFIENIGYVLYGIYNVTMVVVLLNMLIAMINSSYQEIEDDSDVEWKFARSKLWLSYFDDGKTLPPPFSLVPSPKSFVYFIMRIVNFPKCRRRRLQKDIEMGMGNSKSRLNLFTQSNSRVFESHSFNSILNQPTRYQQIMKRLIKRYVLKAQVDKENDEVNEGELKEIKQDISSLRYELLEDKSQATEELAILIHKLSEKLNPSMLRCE
Briefly: TRPC3 inhibitory activity assay (FLIPR calcium fluorescence). The class given is cell-based. The conditions noted are these: for relative selectivity TRPC3/ TRPC5: ratio of IC50 values. As for the experimental part: (§1) HEK-293 cells expressing hTRPC3, hTRPC4 or hTRPC5 were seeded into black-bottomed 96-well plates coated with poly-lysine (PDL), with 2×10^4 cells per well. After 8 h of culture, the original culture medium was discarded, and 60 µL of Fluo-4/AM dye with a final concentration of 4 µM was added. The plates were incubated at 37 °C for 60 min, and then rinsed five times with calcium flow detection buffer. […] Then, the agonist Englerin A (EA) (MedChemExpress, Shanghai, China, final concentration of 0.3nM) was added, and the fluorescence signal was collected for 600 seconds. The fluorescence signal of the trajectory diagram is represented by F/F0, wherein F is the fluorescence signal at different time points, and F0 is the basic fluorescence signal, that is, the average value of the fluorescence signal at the first 10 time points. […] The area under the curve of the change in fluorescence intensity after adding EA was calculated. IC50 value was calculated using log[Inhibitor] vs. response - Variable slope, taking into account the area under the curve and the log value of the concentration of the compound.

Assay [2] deals with T2, hTRPC4 (Homo sapiens, UniProt Q9UBN4).
T2 construct: expressed in transfected cells; host or cells: HEK-293
T2 sequence (Q9UBN4 1-977): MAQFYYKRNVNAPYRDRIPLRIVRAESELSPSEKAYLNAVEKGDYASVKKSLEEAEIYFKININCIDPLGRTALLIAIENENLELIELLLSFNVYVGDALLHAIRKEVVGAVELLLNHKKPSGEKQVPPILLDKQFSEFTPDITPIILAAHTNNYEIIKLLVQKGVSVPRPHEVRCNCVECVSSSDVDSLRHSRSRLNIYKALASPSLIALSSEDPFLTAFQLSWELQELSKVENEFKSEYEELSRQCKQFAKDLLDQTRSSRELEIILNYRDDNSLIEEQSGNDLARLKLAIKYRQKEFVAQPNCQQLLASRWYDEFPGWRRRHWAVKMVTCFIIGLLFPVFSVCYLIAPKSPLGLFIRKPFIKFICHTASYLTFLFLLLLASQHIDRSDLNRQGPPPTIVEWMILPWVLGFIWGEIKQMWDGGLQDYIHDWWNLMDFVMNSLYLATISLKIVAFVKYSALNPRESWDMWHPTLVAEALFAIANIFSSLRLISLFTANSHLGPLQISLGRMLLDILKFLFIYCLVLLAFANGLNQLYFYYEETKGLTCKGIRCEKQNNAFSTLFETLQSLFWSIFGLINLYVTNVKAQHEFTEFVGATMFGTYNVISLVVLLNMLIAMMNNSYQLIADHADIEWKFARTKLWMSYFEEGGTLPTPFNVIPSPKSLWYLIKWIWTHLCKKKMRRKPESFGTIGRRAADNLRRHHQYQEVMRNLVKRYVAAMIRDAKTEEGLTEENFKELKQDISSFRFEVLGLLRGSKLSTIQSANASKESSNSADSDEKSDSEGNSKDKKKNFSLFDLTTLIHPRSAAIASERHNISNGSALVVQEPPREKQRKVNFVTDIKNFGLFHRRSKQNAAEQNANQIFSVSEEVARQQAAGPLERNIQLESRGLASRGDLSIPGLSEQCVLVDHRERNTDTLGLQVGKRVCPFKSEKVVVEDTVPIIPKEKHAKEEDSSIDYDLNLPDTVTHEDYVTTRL
As to the kind of experiment: TRPC4 inhibitory activity assay (FLIPR calcium fluorescence). The class given is cell-based. Here is the method:
as §1

Where [3] appears, read: Table 3, read-out: inhibitory activity IC50 TRPC3.
Setting [4] is: Table 3, read-out: inhibitory activity IC50 TRPC4.

The IC50 is the concentration at which inhibition is half-maximal.

Read-outs that look alike come from different tables or passages of the source.

Turning to `COC1CCC(F)(c2nc3c(c(=O)n(CCCO)c(=O)n3C)n2Cc2ccc(Cl)cc2)CC1` (stereo not drawn) [Example E32, 7-(4-chlorobenzyl)-8-(1-fluoro-4-methoxycyclohexyl)-1-(3-hydroxypropyl)-3-methyl-3,7-dihydro-1H-purine-2,6-dione], the figures for the 50% inhibitory concentration (IC50) in assay [1] (setting [3]) and in assay [2] (setting [4]) were greater than 10000 nM and 18.4 nM, respectively. For the same molecule, the “relative selectivity TRPC3/ TRPC5” value in assay [1] is greater than 980.

As for `Cn1c(=O)n(CCCO)c(=O)c2c1nc(C1(F)CCC(C(F)(F)F)CC1)n2Cc1ccc(F)c(F)c1` (stereo not drawn) [Example E52], in assay [1], the IC50 is 2530 nM and the “relative selectivity TRPC3/ TRPC5” value came out at 1946. Moreover, in assay [2], the IC50 came to 5.7 nM.

Consider `Cn1c(=O)n(CCCO)c(=O)c2c1nc(C1(F)CCC(C(F)(F)F)CC1)n2Cc1ccc(Cl)cc1` (stereo not drawn) [Example E21, 7-(4-chlorobenzyl)-8-(1-fluoro-4-(trifluoromethyl)cyclohexyl)-1-(3-hydroxypropyl)-3-methyl-3,7-dihydro-1H-purine-2,6-dione], for which the results for the IC50 in assay [1] (setting [3]) and in assay [2] (setting [4]) were 2830 nM and 8.3 nM, respectively. The “relative selectivity TRPC3/ TRPC5” value in assay [1] worked out at 555.

The record behind these values is patent EP4663640A1 (Shanghai Institute of Materia Medica, Chinese Academy of …, priority 2023, dated 2024).
